In US10821115B2, “Compounds that inhibit Mcl-1 protein” (priority 2017, dated 2020):
Read-outs that look alike come from different tables or passages of the source.

Tested on: human multiple myeloma cell line, OPM-2
Assay: Cell viability assay (OPM-2 10 FBS), CellTiter-Glo
Type: cell-based
Method: Cell viability assay (OPM-2 10 FBS)
The human multiple myeloma cell line, OPM-2, was cultured in complete growth medium containing RPMI 1640 and 10% fetal bovine serum (FBS). Cells were seeded into 384-well plates at 3000 cells/well density in complete growth medium containing 10% FBS, and incubated for 16 h with serially diluted test compounds in a 37° C. incubator with 5% CO2. Cell viability was tested using CellTiter-Glo® assay (Promega, Madison, Wis.) according to the manufacturer recommendations. Luminescence was determined using an EnVision® Multilabel plate reader 25 min after the addition of detection reagent. IC50 values were then calculated with Xlfit using a logistical 4-parameter fit model in GraphPad Prism (GraphPad Software, San Diego, Calif.) or in Genedata Screener® (Genedata, Basel, Switzerland).

[1] = read-out: OPM-2 10% FBS IC50 IP, OPM-2 cells, 10% FBS, 16 h, CellTiter-Glo
[2] = Homo sapiens, OPM-2, 16 h, read-out: OPM-2 10% FBS IC50 IP, OPM-2 cells, 10% FBS, 16 h incubation
[3] = Homo sapiens, OPM-2, 16 h, read-out: OPM-2 10% FBS IC50 IP, OPM-2 cells, 10% FBS, 16 h, CellTiter-Glo
[4] = read-out: OPM-2 10% FBS IC50 IP, OPM-2 cells, 10% FBS, 16 h incubation

`CO[C@]1(c2cccnc2F)/C=C/C[C@H](C)[C@@H](C)S(=O)(=O)NC(=O)c2ccc3c(c2)N(C[C@@H]2CC[C@H]21)C[C@@]1(CCCc2cc(Cl)ccc21)CO3` [Example 100325, (1S,3′R,6′R,7′R,8′E,11′S,12′R)-6-chloro-7′-(2-fluoro-3-pyridinyl)-7′-methoxy-11′,12′-dimethyl-3,4-dihydro-2H,15′H-spiro[naphthalene-1,22′-[20]oxa[13]thia[1,14]diazatetracyclo [14.7.2.0~3,6~.0~19,24~]pentacosa[8,16,18,24]tetraen]-15′-one 13′,13′-dioxide] showed an IC50 [1] of 482 nM.
Work on `CO[C@@]1(CN2CCN(CC(CO)CO)CC2)/C=C/C[C@H](C)[C@@H](C)S(=O)(=O)NC(=O)c2ccc3c(c2)N(C[C@@H]2CC[C@H]21)C[C@@]1(CCCc2cc(Cl)ccc21)CO3` [Example 310, (1S,3′R,6′R,7′S,8′E,11′S,12′R)-6-chloro-7′-((4-(3-hydroxy-2-(hydroxymethyl)propyl)-1-piperazinyl)methyl)-7′-methoxy-11′,12′-dimethyl-3,4-dihydro-2H,15′H-spiro[naphthalene-1,22′-[20]oxa[13]thia[1,14]diazatetracyclo [14.7.2.0~3,6~.0~19,24~]pentacosa[8,16,18,24]tetraen]-15′-one 13′,13′-dioxide] yielded an IC50 [2] of 517 nM.
With `C[C@@H]1[C@@H](C)CCC[C@](CO)(CN2CCOCC2)[C@@H]2CC[C@H]2CN2C[C@@]3(CCCc4cc(Cl)ccc43)COc3ccc(cc32)C(=O)NS1(=O)=O` [Example 100406, (1S,3′R,6′R,7′R,11′S,12′R)-6-chloro-7′-(hydroxymethyl)-11′,12′-dimethyl-7′-(4-morpholinylmethyl)-3,4-dihydro-2H,15′H-spiro[naphthalene-1,22′-[20]oxa[13]thia[1,14]diazatetracyclo [14.7.2.0~3,6~.0~19,24~]pentacosa[16,18,24]trien]-15′-one 13′,13′-dioxide] the IC50 [3] was 747 nM.
`CO[C@]1(CN2CCN3CCN(C(C)=O)C[C@@H]3C2)/C=C/C[C@H](C)[C@@H](C)S(=O)(=O)NC(=O)c2ccc3c(c2)N(C[C@@H]2CC[C@H]21)C[C@@]1(CCCc2cc(Cl)ccc21)CO3` (single isomer, unassigned) [Example 230] showed an IC50 [4] of 70 nM.
For `C[C@@H]1[C@@H](C)C/C=C/C(O)(CN2CCN3CCCC[C@@H]3C2)[C@@H]2CC[C@H]2CN2C[C@@]3(CCCc4cc(Cl)ccc43)COc3ccc(cc32)C(=O)NS1(=O)=O` (single isomer, unassigned) [Example 243], the IC50 [4] was 106 nM.
`CO[C@@]1(CN2CCN3CCCC[C@@H]3C2)/C=C/C[C@H](C)[C@@H](Cc2ccccc2)S(=O)(=O)NC(=O)c2ccc3c(c2)N(C[C@@H]2CC[C@H]21)C[C@@]1(CCCc2cc(Cl)ccc21)CO3` (single isomer, unassigned) [Example 104] gave an IC50 [4] of 782 nM.
`CO[C@@]1(CC(=O)NCCO)/C=C/C[C@H](C)[C@@H](C)S(=O)(=O)NC(=O)c2ccc3c(c2)N(C[C@@H]2CC[C@H]21)C[C@@]1(CCCc2cc(Cl)ccc21)CO3` [Example 100465, 2-((1S,3′R,6′R,7′S,8′E,11′S,12′R)-6-chloro-7′-methoxy-11′,12′-dimethyl-13′,13′-dioxido-15′-oxo-3,4-dihydro-2H-spiro[naphthalene-1,22′-[20]oxa[13]thia[1,14]diazatetracyclo [14.7.2.0~3,6~.0~19,24~]pentacosa[8,16,18,24]tetraen]-7′-yl)-N-(2-hydroxyethyl)acetamide] was tested, and the IC50 [3] was 729 nM.
Work on `CCO[C@@]1(CN2CCC(N(CCOC)CCOC)CC2)/C=C/C[C@H](C)[C@@H](C)S(=O)(=O)NC(=O)c2ccc3c(c2)N(C[C@@H]2CC[C@H]21)C[C@@]1(CCCc2cc(Cl)ccc21)CO3` [Example 312, (1S,3′R,6′R,7′S,8′E,11′S,12′R)-7′-((4-(bis(2-methoxyethyl)amino)-1-piperidinyl)methyl)-6-chloro-7′-ethoxy-11′,12′-dimethyl-3,4-dihydro-2H,15′H-spiro[naphthalene-1,22′-[20]oxa[13]thia[1,14]diazatetracyclo [14.7.2.0~3,6~.0~19,24~]pentacosa[8,16,18,24]tetraen]-15′-one 13′,13′-dioxide] yielded an IC50 [2] of 408 nM.
`CO[C@@]1(CN2CCN(C3CCOCC3)CC2)/C=C/C[C@H](C)[C@@H](C)S(=O)(=O)NC(=O)c2ccc3c(c2)N(C[C@@H]2CC[C@H]21)C[C@@]1(CCCc2cc(Cl)ccc21)CO3` [Example 262, (1S,3′R,6′R,7′S,8′E,11′S,12′R)-6-chloro-7′-methoxy-11′,12′-dimethyl-7′-((4-(tetrahydro-2H-pyran-4-yl)-1-piperazinyl)methyl)-3,4-dihydro-2H,15′H-spiro[naphthalene-1,22′-[20]oxa[13]thia[1,14]diazatetracyclo [14.7.2.0~3,6~.0~19,24~]pentacosa[8,16,18,24]tetraen]-15′-one 13′,13′-dioxide] was tested, and the IC50 [2] was 89 nM.
In the case of `C[C@@H]1[C@@H](C)C/C=C/[C@](O)(c2ccc(F)nc2)[C@@H]2CC[C@H]2CN2C[C@@]3(CCCc4cc(Cl)ccc43)COc3ccc(cc32)C(=O)NS1(=O)=O` [Example 100420, (1S,3′R,6′R,7′R,8′E,11′S,12′R)-6-chloro-7′-(6-fluoro-3-pyridinyl)-7′-hydroxy-11′,12′-dimethyl-3,4-dihydro-2H,15′H-spiro[naphthalene-1,22′-[20]oxa[13]thia[1,14]diazatetracyclo [14.7.2.0~3,6~.0~19,24~]pentacosa[8,16,18,24]tetraen]-15′-one 13′,13′-dioxide], the IC50 [3] is reported as 161 nM.
Molecule `CO[C@@]1(CN2CCN(CCS(C)(=O)=O)CC2)/C=C/C[C@H](C)[C@@H](C)S(=O)(=O)NC(=O)c2ccc3c(c2)N(C[C@@H]2CC[C@H]21)C[C@@]1(CCCc2cc(Cl)ccc21)CO3` [Example 81] has an IC50 [2] of 112 nM.
For `CCO[C@@]1(CN2CCN(C3(C)COC3)CC2)/C=C/C[C@H](C)[C@@H](C)S(=O)(=O)NC(=O)c2ccc3c(c2)N(C[C@@H]2CC[C@H]21)C[C@@]1(CCCc2cc(Cl)ccc21)CO3` [Example 311, (1S,3′R,6′R,7′S,8′E,11′S,12′R)-6-chloro-7′-ethoxy-11′,12′-dimethyl-7′-((4-(3-methyl-3-oxetanyl)-1-piperazinyl)methyl)-3,4-dihydro-2H,15′H-spiro[naphthalene-1,22′-[20]oxa[13]thia[1,14]diazatetracyclo [14.7.2.0~3,6~.0~19,24~]pentacosa[8,16,18,24]tetraen]-15′-one 13′,13′-dioxide], the IC50 [2] was 362 nM.
With `CCO[C@]1(CN2CCN(C(COC)COC)CC2)/C=C/C[C@H](C)[C@@H](C)S(=O)(=O)NC(=O)c2ccc3c(c2)N(C[C@@H]2CC[C@H]21)C[C@@]1(CCCc2cc(Cl)ccc21)CO3` [Example 116, (1S,3′R,6′R,7′R,8′E,11′S,12′R)-6-chloro-7′-ethoxy-7′-((4-(2-methoxy-1-(methoxymethyl)ethyl)-1-piperazinyl)methyl)-11′,12′-dimethyl-3,4-dihydro-2H,15′H-spiro[naphthalene-1,22′-[20]oxa[13]thia[1,14]diazatetracyclo [14.7.2.0~3,6~.0~19,24~]pentacosa[8,16,18,24]tetraen]-15′-one 13′,13′-dioxide] the IC50 [2] was 387 nM.
With `C[C@@H]1[C@@H](C)C/C=C/[C@@](O)(C#C[Si](C)(C)C)[C@@H]2CC[C@H]2CN2C[C@@]3(CCCc4cc(Cl)ccc43)COc3ccc(cc32)C(=O)NS1(=O)=O` [Example 100240, (1S,3′R,6′R,7′S,8′E,11′S,12′R)-6-chloro-7′-hydroxy-11′,12′-dimethyl-7′-((trimethylsilyl)ethynyl)-3,4-dihydro-2H,15′H-spiro[naphthalene-1,22′-[20]oxa[13]thia[1,14]diazatetracyclo [14.7.2.0~3,6~.0~19,24~]pentacosa[8,16,18,24]tetraen]-15′-one 13′,13′-dioxide] the IC50 [1] was 266 nM.
Molecule `C=C(C)C(=O)C[C@]1(OC)/C=C/C[C@H](C)[C@@H](C)S(=O)(=O)NC(=O)c2ccc3c(c2)N(C[C@@H]2CC[C@H]21)C[C@@]1(CCCc2cc(Cl)ccc21)CO3` [Example 100476, (1S,3′R,6′R,7′S,8′E,11′S,12′R)-6-chloro-7′-methoxy-11′,12′-dimethyl-7′-(3-methyl-2-oxo-3-buten-1-yl)-3,4-dihydro-2H,15′H-spiro[naphthalene-1,22′-[20]oxa[13]thia[1,14]diazatetracyclo [14.7.2.0~3,6~.0~19,24~]pentacosa[8,16,18,24]tetraen]-15′-one 13′,13′-dioxide] has an IC50 [3] of 1340 nM.
With `COCC[C@@H]1[C@@H](C)C/C=C/[C@@](CN2CCN(C(C)C)[C@H](C)C2)(OC)[C@@H]2CC[C@H]2CN2C[C@@]3(CCCc4cc(Cl)ccc43)COc3ccc(cc32)C(=O)NS1(=O)=O` [Example 12, (1S,3′R,6′R,7′R,8′E,11′S,12′R)-6-chloro-7′-methoxy-12′-(2-methoxyethyl)-11′-methyl-7′-(((3R)-3-methyl-4-(1-methylethyl)-1-piperazinyl)methyl)-3,4-dihydro-2H, 15′H-spiro[naphthalene-1,22′-[20]oxa[13]thia[1,14]diazatetracyclo[14.7.2.0-3,6˜.0˜19,24˜]pentacosa[8,16,18,24]tetraen]-15′-one 13′,13′-dioxide] the IC50 [2] was 22 nM.
With `CO[C@]1(c2cccnc2F)/C=C/C[C@H](C)[C@@H](C)S(=O)(=O)NC(=O)c2ccc3c(c2)N(C[C@@H]2CC[C@H]21)C[C@@]1(CCCc2cc(Cl)ccc21)CO3` [Example 100324, (1S,3′R,6′R,7′R,8′E,11′S,12′R)-6-chloro-7′-(2-fluoro-3-pyridinyl)-7′-methoxy-11′,12′-dimethyl-3,4-dihydro-2H,15′H-spiro[naphthalene-1,22′-[20]oxa[13]thia[1,14]diazatetracyclo [14.7.2.0~3,6~.0~19,24~]pentacosa[8,16,18,24]tetraen]-15′-one 13′,13′-dioxide] the IC50 [1] was 1170 nM.
